According to patent publication US10208033B2, “β-carboline, dihydro-β-carboline and tetrahydro-β-carboline alkaloid derivatives and preparation methods same and use in aspects of preventing and treating plant viruses, fungicides and insecticides” (NANKAI UNIVERSITY, priority 2013, dated 2019):

Experiments:
[1] = test system: tobacco mosaic virus (TMV); assay: Anti-TMV activity, overall statements on Table 1; assay type: in vivo, tobacco mosaic virus (host Nicotiana tabacum L.cv.Xanthi NN); conditions: 100 μg/mL versus ningnanmycin at 100 μg/mL
Sclerotinia scleotiorum = assay: Fungicidal (bactericidal) activity in vitro, PDA colony diameter; assay type: cell-based; conditions: 50 mg/kg
[2] = test system: tobacco mosaic virus (TMV); assay: Anti-TMV in vivo inactivation; parameters: species or system tobacco mosaic virus (host Nicotiana tabacum L.cv.Xanthi NN)
Fusarium graminearumt = assay: microbe, parasite or virus in culture; assay type: cell-based; conditions: 50 mg/kg
[3] = test system: tobacco mosaic virus (TMV); assay: Anti-TMV in vivo therapeutic effect; parameters: species or system tobacco mosaic virus (host Nicotiana tabacum L.cv.Xanthi NN)
Rhizoctonia solani = assay: Fungicidal (bactericidal) activity in vitro, PDA colony diameter; assay type: cell-based; conditions: 50 mg/kg
mosquito larvae = assay: whole plant or invertebrate; conditions: 24 h
How it was run: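 Compound dissolved in acetone (or other solvent) to a 1000 ppm stock and diluted in water to 5 ppm. Ten Culex pipiens pallens larvae at the start of the fourth instar, laboratory-reared, added per beaker; solvent-only aqueous control.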

Fusarium fujikuroi = assay: Fungicidal (bactericidal) activity in vitro, PDA colony diameter; assay type: cell-based; conditions: 50 mg/kg
potato late blight = assay: microbe, parasite or virus in culture; assay type: cell-based
Botrytis cinerea = assay: Fungicidal (bactericidal) activity in vitro, PDA colony diameter; assay type: cell-based; conditions: 50 mg/kg
[4] = test system: tobacco mosaic virus (TMV); assay: Anti-TMV in vitro effect (half-leaf soaking); assay type: cell-based, tobacco mosaic virus (host Nicotiana tabacum L.cv.Xanthi NN)
[5] = test system: Colletotrichum orbiculare; assay: Fungicidal (bactericidal) activity in vitro, PDA colony diameter; assay type: cell-based; conditions: 50 mg/kg
Rhizoctonia cereali = assay: as above; assay type: cell-based; conditions: 50 mg/kg
[6] = test system: tobacco mosaic virus (TMV); assay: Anti-TMV in vivo protective effect; parameters: species or system tobacco mosaic virus (host Nicotiana tabacum L.cv.Xanthi NN)
cotton bollworms = assay: whole plant or invertebrate; conditions: concentration 600 mg/kg
Method: Experimental method of cotton bollworms: feed and drug mixing method: measure 3 mL of prepared solution and add it to about 27 g of newly prepared feed, thereby obtaining needed concentration through dilution by 10 times.

Cercospora arachidicola = assay: Fungicidal (bactericidal) activity in vitro, PDA colony diameter; assay type: cell-based; conditions: 50 mg/kg
Phytophthora capsici = assay: as above; assay type: cell-based; conditions: 50 mg/kg
corn borers = conditions: concentration 600 mg/kg
Alternaria solani = assay: Fungicidal (bactericidal) activity in vitro, PDA colony diameter; assay type: cell-based; conditions: 50 mg/kg
Bipolaria maydis = assay: organism not typed; assay type: cell-based; conditions: 50 mg/kg
cucumber fusarium wilt = assay: Fungicidal (bactericidal) activity in vitro, PDA colony diameter; assay type: cell-based; conditions: 50 mg/kg
armyworms = assay type: in vivo; conditions: concentration 600 mg/kg
Macrophoma kawatsukai = assay: Fungicidal (bactericidal) activity in vitro, PDA colony diameter; assay type: cell-based; conditions: 50 mg/kg

| SMILES | anti-TMV activity compared with ningnanmycin [1] | Bactericidal activity (%) Sclerotinia scleotiorum (Sclerotinia scleotiorum) [%] | Relative inhibition rate (%) In vivo inactivation ([2]; treatment dose 100 μg/mL) [%] | Relative inhibition rate (%) In vivo inactivation ([2]; treatment dose 500 μg/mL) [%] | Bactericidal activity (%) Fusarium graminearumt (Fusarium graminearumt) [%] | Relative inhibition rate (%) In vivo therapy ([3]; treatment dose 100 μg/mL) [%] | Relative inhibition rate (%) In vivo therapy ([3]; treatment dose 500 μg/mL) [%] | Bactericidal activity (%) Rhizoctonia solani (Rhizoctonia solani) [%] | Mosquito larvae Mortality (%) (mosquito larvae; concentration 10 mg/kg) | Bactericidal activity (%) Fusarium fujikuroi (Fusarium fujikuroi) [%] | Bactericidal activity (%) potato late blight (potato late blight) [%] | Bactericidal activity (%) Botrytis cinerea (Botrytis cinerea) [%] | Relative inhibition rate (%) In vitro activity ([4]; treatment dose 100 μg/mL) [%] | Relative inhibition rate (%) In vitro activity ([4]; treatment dose 500 μg/mL) [%] | Bactericidal activity (%) Colletotrichum orbiculare [5] [%] | Bactericidal activity (%) Rhizoctonia cereali (Rhizoctonia cereali) [%] | Relative inhibition rate (%) In vivo protection ([6]; treatment dose 100 μg/mL) [%] | Relative inhibition rate (%) In vivo protection ([6]; treatment dose 500 μg/mL) [%] | Cotton bollworm Mortality (%) (cotton bollworms) | Bactericidal activity (%) Cercospora arachidicola (Cercospora arachidicola) [%] | other results |
| --- | --- | --- | --- | --- | --- | --- | --- | --- | --- | --- | --- | --- | --- | --- | --- | --- | --- | --- | --- | --- | --- |
| C[C@@H]1N[C@H](C(=O)NN=Cc2ccc3c(c2)OCO3)Cc2c1[nH]c1ccccc21 [Ic-12] | equivalent to the activity of commercial variety ningnanmycin | 44.2 | 33.6 | 74.5 | 53.8 | 30.2 | 69 | 50.0 | 15 | 58.8 | 39.1 | 88.9 | 29.1 | 72.6 | 48.0 | 86.5 | 35.8 | 68.1 | 30 | 63.6 | Bactericidal activity (%) Phytophthora capsici (Phytophthora capsici): 81.8%; Corn borer Mortality (%) (corn borers): 15%; Bactericidal activity (%) Alternaria solani (Alternaria solani): 52.4%; Bactericidal activity (%) Bipolaria maydis (Bipolaria maydis): 56.0%; Bactericidal activity (%) Cucumber fusarium wilt (cucumber fusarium wilt): 31.8%; Armyworm Mortality (%) (armyworms): 15%; Bactericidal activity (%) Macrophoma kawatsukai (Macrophoma kawatsukai): 63.6% |
| C[C@@H]1N[C@H](C(=O)NN=Cc2cccs2)Cc2c1[nH]c1ccccc21 [Ic-20, (1S, 3S)—N′-(thiophene-2-methylene)-1-methyl-2,3,4,9-tetrahydropyridino [3,4-b] indol-3-formylhydrazine] | equivalent to the activity of commercial variety ningnanmycin | 88.2 | 29.6 | 59.1 | 62.1 | 25.1 | 52.3 | 46.1 | 75 | 28.6 | 36.0 | 72.7 | 23 | 58.5 | 44.4 | 72.5 | 31.8 | 61.3 | 20 | 47.1 | Bactericidal activity (%) Phytophthora capsici (Phytophthora capsici): 68.4%; Corn borer Mortality (%) (corn borers): 30%; Bactericidal activity (%) Alternaria solani (Alternaria solani): 45.0%; Bactericidal activity (%) Bipolaria maydis (Bipolaria maydis): 44.0%; Bactericidal activity (%) Cucumber fusarium wilt (cucumber fusarium wilt): 26.9%; Armyworm Mortality (%) (armyworms): 35%; Bactericidal activity (%) Macrophoma kawatsukai (Macrophoma kawatsukai): 55.6% |
| CC(=NNC(=O)[C@@H]1Cc2c([nH]c3ccccc23)[C@H](C)N1)C(C)(C)C [Ic-28, (1S, 3S)—N′-(3,3-dimethyl-2-butylidene)-1-methyl-2,3,4,9-tetrahydropyridino [3,4-b] indol-3-formylhydrazine] | equivalent to the activity of commercial variety ningnanmycin | 3.8 | 21.3 | 59.7 | 53.8 | 16.7 | 55.4 | 8.3 | 100 | 23.5 | 30.4 | 41.7 | 25.6 | 58.1 | 32.0 | 48.6 | 18.9 | 56.8 | 45 | 36.4 | Mosquito larvae Mortality (%) (mosquito larvae; concentration 5 mg/kg): 20%; Bactericidal activity (%) Phytophthora capsici (Phytophthora capsici): 18.2%; Corn borer Mortality (%) (corn borers): 40%; Bactericidal activity (%) Alternaria solani (Alternaria solani): 14.3%; Bactericidal activity (%) Bipolaria maydis (Bipolaria maydis): 28.0%; Bactericidal activity (%) Cucumber fusarium wilt (cucumber fusarium wilt): 4.5%; Armyworm Mortality (%) (armyworms): 45%; Bactericidal activity (%) Macrophoma kawatsukai (Macrophoma kawatsukai): 36.4% |
| C[C@@H]1N[C@H](C(=O)NNC(=O)C(C)(C)C)Cc2c1[nH]c1ccccc21 [Id-6, (1S, 3S)—N′-tert-valeryl-1-methyl-2,3,4,9-tetrahydropyridino [3,4-b] indol-3-formylhydrazine] | equivalent to the activity of commercial variety ningnanmycin | 17.3 | 12.8 | 44 | 30.8 | 14.2 | 42.1 | 5.6 | 65 | 29.4 | 26.1 | 50.0 | 8.9 | 45.7 | 24.0 | 10.8 | 16.9 | 47.5 | 25 | 9.1 | Bactericidal activity (%) Phytophthora capsici (Phytophthora capsici): 12.1%; Corn borer Mortality (%) (corn borers): 50%; Bactericidal activity (%) Alternaria solani (Alternaria solani): 14.3%; Bactericidal activity (%) Bipolaria maydis (Bipolaria maydis): 20.0%; Bactericidal activity (%) Cucumber fusarium wilt (cucumber fusarium wilt): 4.5%; Armyworm Mortality (%) (armyworms): 35%; Bactericidal activity (%) Macrophoma kawatsukai (Macrophoma kawatsukai): 42.4% |
| C[C@@H]1N[C@H](C(=O)NNC(=O)C2CCCC2)Cc2c1[nH]c1ccccc21 [Id-7, (1S, 3S)—N′-(cyclopentyl formyl)-1-methyl-2,3,4,9-tetrahydropyridino [3,4-b] indol-3-formylhydrazine] | equivalent to the activity of commercial variety ningnanmycin | 7.7 | 20.3 | 42.4 | 15.4 | 18.6 | 51.4 | 1.4 | 80 | 29.4 | 21.7 | 50.0 | 22.2 | 47.2 | 16.0 | 29.7 | 26.6 | 53.9 | 30 | 9.1 | Bactericidal activity (%) Phytophthora capsici (Phytophthora capsici): 15.2%; Corn borer Mortality (%) (corn borers): 40%; Bactericidal activity (%) Alternaria solani (Alternaria solani): 9.5%; Bactericidal activity (%) Bipolaria maydis (Bipolaria maydis): 28.0%; Bactericidal activity (%) Cucumber fusarium wilt (cucumber fusarium wilt): 9.1%; Armyworm Mortality (%) (armyworms): 40%; Bactericidal activity (%) Macrophoma kawatsukai (Macrophoma kawatsukai): 33.3% |
